In US20070160664A1, “Pharmaceutical compositions comprising of proton pump inhibitor and prokinetic agent” (PANACEA BIOTEC LIMITED, priority 2004, published 2007):

Experiment: Dissolution of domperidone co-processed with an organic acid (developmental studies)
Format: physicochemical
Details: alkaline pH conditions encountered in the gastro-intestinal tract
Text: According to a preferred embodiment of the invention, domperidone is co-processed with an organic acid in the ratio of from about 1:0.25 to about 0.25:1, preferably from about 1:0.5 to about 0.5:1, most preferably about 1:1. The co-processing may be aided by dissolving the two ingredients with the help of heat followed by cooling, when the dissolved material separates out. The material separated out may be removed and dried. The co-processed material may be incorporated into dosage forms such as tablets, which may further be combined with enteric coated tablets of proton pump inhibitor and an immediate release tablet of domperidone, in a hard gelatin capsule.

## O=c1[nH]c2ccccc2n1CCCN1CCC(n2c(=O)[nH]c3cc(Cl)ccc32)CC1 [domperidone]
  dissolution: improved dissolution
